According to a compilation of properties of binary mixtures (doi:10.1021/je300384g):

Assay: xn = mol fraction of the nth substance listed
Conditions: 101 kPa

With `CCCC[N+]1(C)CCCC1.N#C[N-]C#N` + CC(C)O the speed of sound (298.15 K, x2 = 0) was 1810 m/s, the speed of sound (298.15 K, x2 = 0.0896) was 1789 m/s and the speed of sound (298.15 K, x2 = 0.1849) was 1761 m/s. For the same molecule, the speed of sound (298.15 K, x2 = 0.2967) was 1723 m/s, the speed of sound (298.15 K, x2 = 0.4039) was 1676 m/s and the speed of sound (298.15 K, x2 = 0.5056) was 1622 m/s. It also gave a speed of sound (298.15 K, x2 = 0.6018) of 1559 m/s, a speed of sound (298.15 K, x2 = 0.6997) of 1483 m/s and a speed of sound (298.15 K, x2 = 0.8066) of 1382 m/s. It also gave a speed of sound (313.15 K, x2 = 0) of 1773 m/s, a speed of sound (313.15 K, x2 = 0.0466) of 1761 m/s and a speed of sound (313.15 K, x2 = 0.1849) of 1723 m/s. The speed of sound (313.15 K, x2 = 0.2967) was 1684 m/s, the speed of sound (313.15 K, x2 = 0.4039) was 1637 m/s and the speed of sound (313.15 K, x2 = 0.6018) was 1518 m/s. For the same molecule, the speed of sound (313.15 K, x2 = 0.6997) was 1440 m/s, the speed of sound (313.15 K, x2 = 0.892) was 1240 m/s and the speed of sound (313.15 K, x2 = 0.9461) was 1170 m/s. The speed of sound (328.15 K, x2 = 0) was 1736 m/s, the speed of sound (328.15 K, x2 = 0.0466) was 1724 m/s and the speed of sound (328.15 K, x2 = 0.0896) was 1713 m/s. For the same molecule, the speed of sound (328.15 K, x2 = 0.1849) was 1685 m/s, the speed of sound (328.15 K, x2 = 0.2967) was 1646 m/s and the speed of sound (328.15 K, x2 = 0.4039) was 1598 m/s. The speed of sound (328.15 K, x2 = 0.5056) was 1543 m/s, the speed of sound (328.15 K, x2 = 0.6018) was 1478 m/s and the speed of sound (328.15 K, x2 = 0.6997) was 1398 m/s. The speed of sound (328.15 K, x2 = 0.8066) was 1293 m/s and the speed of sound (328.15 K, x2 = 0.9461) was 1120 m/s.
Molecule `CCCC[N+]1(C)CCCC1.N#C[N-]C#N` + CCCCO has a speed of sound (298.15 K, x2 = 0.0464) of 1799 m/s, a speed of sound (298.15 K, x2 = 0.0945) of 1787 m/s and a speed of sound (298.15 K, x2 = 0.1898) of 1759 m/s. It also gave a speed of sound (298.15 K, x2 = 0.299) of 1720 m/s, a speed of sound (298.15 K, x2 = 0.4012) of 1674 m/s and a speed of sound (298.15 K, x2 = 0.4989) of 1624 m/s. For the same molecule, the speed of sound (298.15 K, x2 = 0.5996) was 1564 m/s, the speed of sound (298.15 K, x2 = 0.6947) was 1500 m/s and the speed of sound (298.15 K, x2 = 0.7995) was 1420 m/s. The speed of sound (298.15 K, x2 = 0.8965) was 1339 m/s, the speed of sound (298.15 K, x2 = 0.9464) was 1295 m/s and the speed of sound (313.15 K, x2 = 0.0464) was 1761 m/s. The speed of sound (313.15 K, x2 = 0.0945) was 1749 m/s, the speed of sound (313.15 K, x2 = 0.1898) was 1720 m/s and the speed of sound (313.15 K, x2 = 0.299) was 1680 m/s. The speed of sound (313.15 K, x2 = 0.4012) was 1635 m/s, the speed of sound (313.15 K, x2 = 0.4989) was 1583 m/s and the speed of sound (313.15 K, x2 = 0.5996) was 1522 m/s. It also gave a speed of sound (313.15 K, x2 = 0.6947) of 1457 m/s, a speed of sound (313.15 K, x2 = 0.8965) of 1293 m/s and a speed of sound (313.15 K, x2 = 0.9464) of 1246 m/s. The speed of sound (328.15 K, x2 = 0) was 1736 m/s, the speed of sound (328.15 K, x2 = 0.0464) was 1724 m/s and the speed of sound (328.15 K, x2 = 0.0945) was 1712 m/s. For the same molecule, the speed of sound (328.15 K, x2 = 0.299) was 1642 m/s, the speed of sound (328.15 K, x2 = 0.4012) was 1596 m/s and the speed of sound (328.15 K, x2 = 0.4989) was 1544 m/s. It also gave a speed of sound (328.15 K, x2 = 0.7995) of 1333 m/s, a speed of sound (328.15 K, x2 = 0.8965) of 1247 m/s and a speed of sound (328.15 K, x2 = 0.9464) of 1199 m/s.
For `CC(C)O` + CCCC[N+]1(C)CCCC1.N#C[N-]C#N, the speed of sound (313.15 K, x1 = 1) was 1088 m/s and the speed of sound (328.15 K, x1 = 1) was 1034 m/s.
Molecule `CCCCO` + CCCC[N+]1(C)CCCC1.N#C[N-]C#N has a speed of sound (298.15 K, x1 = 1) of 1240 m/s, a speed of sound (313.15 K, x1 = 1) of 1190 m/s and a speed of sound (328.15 K, x1 = 1) of 1140 m/s.
For `CCCO` + CCCC[N+]1(C)CCCC1.N#C[N-]C#N, the speed of sound (298.15 K, x1 = 1) was 1206 m/s, the speed of sound (313.15 K, x1 = 1) was 1155 m/s and the speed of sound (328.15 K, x1 = 1) was 1105 m/s.
In the case of `CCCC[N+]1(C)CCCC1.N#C[N-]C#N` + CCCO, the speed of sound (298.15 K, x2 = 0) is reported as 1810 m/s, the speed of sound (298.15 K, x2 = 0.0669) is reported as 1796 m/s and the speed of sound (298.15 K, x2 = 0.1894) is reported as 1766 m/s. The speed of sound (298.15 K, x2 = 0.3998) was 1693 m/s, the speed of sound (298.15 K, x2 = 0.597) was 1590 m/s and the speed of sound (298.15 K, x2 = 0.6944) was 1523 m/s. The speed of sound (298.15 K, x2 = 0.8002) was 1434 m/s, the speed of sound (298.15 K, x2 = 0.894) was 1339 m/s and the speed of sound (298.15 K, x2 = 0.9437) was 1281 m/s. It also gave a speed of sound (313.15 K, x2 = 0) of 1773 m/s, a speed of sound (313.15 K, x2 = 0.0669) of 1758 m/s and a speed of sound (313.15 K, x2 = 0.1894) of 1728 m/s. For the same molecule, the speed of sound (313.15 K, x2 = 0.2912) was 1695 m/s, the speed of sound (313.15 K, x2 = 0.514) was 1598 m/s and the speed of sound (313.15 K, x2 = 0.597) was 1549 m/s. It also gave a speed of sound (313.15 K, x2 = 0.6944) of 1480 m/s, a speed of sound (313.15 K, x2 = 0.894) of 1292 m/s and a speed of sound (313.15 K, x2 = 0.9437) of 1233 m/s. The speed of sound (328.15 K, x2 = 0.0669) was 1722 m/s, the speed of sound (328.15 K, x2 = 0.1894) was 1690 m/s and the speed of sound (328.15 K, x2 = 0.2912) was 1657 m/s. For the same molecule, the speed of sound (328.15 K, x2 = 0.3998) was 1615 m/s, the speed of sound (328.15 K, x2 = 0.597) was 1509 m/s and the speed of sound (328.15 K, x2 = 0.8002) was 1346 m/s. The speed of sound (328.15 K, x2 = 0.894) was 1247 m/s and the speed of sound (328.15 K, x2 = 0.9437) was 1186 m/s.
